Reference: publication PMC4862738 (Biomacromolecules, 2016)

Target: wt-PhaCCs (Chromobacterium sp. USM2, UniProt E1APK1)
Experiment: continuous DTNB assay of CoA release, […] nm
Assay type: biochemical
Conditions: KPi 100 mM pH 7.8, 30 °C, BSA 0.2 mg/mL, DTNB 0.3 mM, Triton X-100 50 mg/L

C[C@@H](O)CC(=O)SCCNC(=O)CCNC(=O)[C@H](O)C(C)(C)COP(=O)(O)OP(=O)(O)OC[C@H]1O[C@@H](n2cnc3c(N)ncnc32)[C@H](O)[C@@H]1OP(=O)(O)O [1a, HBCoA]
continuous DTNB assay of CoA release, 412 nm: addition of BSA would increase SA of PhaCCs with HBCoA
